Laboratory results published in US20080161232A1, “C5a Receptor Antagonist” (JERINI AG, priority 2005, published 2008).
Like-named read-outs stand apart in the source and are kept apart here. Starred links: 1 amine or outer side, 2 acyl side, 3 side chain; linkers in the order of their positions; H or OH if unused. Positions of bridges follow the written chain, without caps; N, C: chain ends. Non-standard residues stand in square brackets, D forms with d. Residues, ends and D or L forms follow the SMILES beside them. *: point of attachment. Orn(2-imidazolinyl) = N[C@@H](CCCNC1=NCCN1)C(=O)O; X6 = O=C([C@H](C[S+]([O-])Cc1cccnc1)N[*:1])[*:2]; Phe(3-Cl) = N[C@@H](Cc1cccc(Cl)c1)C(=O)O; Dip = N[C@H](C(=O)O)C(c1ccccc1)c1ccccc1; X3 = O=C([C@H](CCNC1=NCCN1)N[*:1])[*:2]; Phe(4-F) = N[C@@H](Cc1ccc(F)cc1)C(=O)O; Phe(4-Me) = Cc1ccc(C[C@H](N)C(=O)O)cc1; 2Nal = N[C@@H](Cc1ccc2ccccc2c1)C(=O)O; Bta = N[C@@H](Cc1csc2ccccc12)C(=O)O; cisHyp = O=C(O)[C@@H]1C[C@H](O)CN1; d(hCha) = N[C@H](CCC1CCCCC1)C(=O)O; Hyp = O=C(O)[C@@H]1C[C@@H](O)CN1; d(hLeu) = CC(C)CC[C@@H](N)C(=O)O; Cha = N[C@@H](CC1CCCCC1)C(=O)O; dCha = N[C@H](CC1CCCCC1)C(=O)O; NHPhenethyl = c1ccc(CCN*)cc1; hLeu = CC(C)CC[C@H](N)C(=O)O; X14 = NC(=O)N(Cc1ccccc1)N*; Nle = CCCC[C@H](N)C(=O)O; Orn = NCCC[C@H](N)C(=O)O; Aze = O=C(O)[C@@H]1CCN1; Nva = CCC[C@H](N)C(=O)O; X22 = c1cncc(C*)c1; tBu = CC(C)(C)*

Target: T1, human C5aR(CD88) (Homo sapiens, UniProt P21730)
T1 construct: expressed in transfected cells; host or cells: rat basophilic leukemia cells (RBL)
T1 sequence (P21730 1-350): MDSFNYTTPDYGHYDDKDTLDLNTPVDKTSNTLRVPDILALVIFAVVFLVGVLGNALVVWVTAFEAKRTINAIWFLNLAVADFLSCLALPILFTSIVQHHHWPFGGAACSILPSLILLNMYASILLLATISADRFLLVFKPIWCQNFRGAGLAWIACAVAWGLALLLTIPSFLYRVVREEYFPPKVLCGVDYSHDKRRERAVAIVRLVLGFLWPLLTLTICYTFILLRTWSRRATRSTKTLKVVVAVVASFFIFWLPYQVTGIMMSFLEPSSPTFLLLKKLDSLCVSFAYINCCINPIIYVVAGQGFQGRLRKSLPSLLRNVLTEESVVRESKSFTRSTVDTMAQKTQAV
Assay: Determination of the IC50 value in an enzyme release assay (functional assay, antagonistic activity)
Assay type: cell-based
Details: for IC50: antagonistic activity, IC50 group in enzyme release assay, RBL cells expressing human C5aR(CD88); for inhibitory activity (in words): functional assay of example 11, noteworthy = IC50 less than 200 nM

SMILES | IC50 (read-out: activity (group)) [nM] | other results
CC(=O)N[C@@H](Cc1ccccc1)C(=O)N[C@@H](CCCN)C(=O)N1CCC[C@H]1C(=O)N[C@@H](CC1CCCCC1)C(=O)N[C@@H](Cc1csc2ccccc12)C(=O)NN(Cc1ccccc1)C(N)=O [Compound 257, Ac-Phe-Orn-Pro-Cha-Bta-NH-NBn-CO—NH2] (Ac-F[Orn]P[Cha][Bta]-X14) |  | IC50 (activity (group)): 50 to 200 nM
O=C1NCCC[C@H](NCc2ccccc2)C(=O)N2CCC[C@H]2C(=O)N[C@H](CC2CCCCC2)C(=O)N[C@@H](Cc2c[nH]c3ccccc23)C(=O)N[C@H]1Cc1ccccc1 [Compound 57, Ph-CH2-[Orn-Pro-cha-Trp-Phe]] | 20 to 50 | 
CC(=O)N[C@@H](Cc1ccccc1)C(=O)N[C@@H](CCNC1=NCCN1)C(=O)N1CCC[C@H]1C(=O)N[C@H](CC1CCCCC1)C(=O)N[C@@H](Cc1csc2ccccc12)C(=O)N[C@@H](Cc1ccccc1)C(N)=O [Compound 220, Ac-Phe-Fcn-Pro-cha-Bta-Phe-NH2] (Ac-F[X3]P[dCha][Bta]F-NH2) | 10 to 20 | 
CC(=O)N[C@@H](Cc1ccccc1)C(=O)N[C@@H](CCCN)C(=O)N1CCC[C@H]1C(=O)N[C@H](CCC(C)C)C(=O)N[C@@H](Cc1csc2ccccc12)C(=O)N[C@H](Cc1ccccc1)C(=O)O [Compound 281, Ac-Phe-Orn-Pro-hle-Bta-phe-OH] (Ac-F[Orn]P[d(hLeu)][Bta][dF]-OH) | 50 to 200 | 
CC(C)CC[C@@H]1NC(=O)[C@H](Cc2c[nH]c3ccccc23)NC(=O)[C@@H](CCC(C)C)NC(=O)[C@@H]2C[C@@H](O)CN2C(=O)[C@@H](NC(=O)[C@@H](N)Cc2ccccc2)CCCNC1=O [Compound 367, H-Phe-[Orn-Hyp-hle-Trp-Hle]] (H-F[Orn][Hyp][d(hLeu)]W[hLeu]; lactam 2-C) | 50 to 200 | 
CCC[C@@H]1NC(=O)[C@H](Cc2c[nH]c3ccccc23)NC(=O)[C@@H](CC2CCCCC2)NC(=O)[C@@H]2CCCN2C(=O)[C@@H](NC(=O)[C@H](Cc2ccccc2)NC(C)=O)CCCNC1=O [Compound 31, Ac-Phe-[Orn-Pro-cha-Trp-Nva]] (Ac-F[Orn]P[dCha]W[Nva]; lactam 2-C) | 10 to 20 | inhibitory activity (in words): without significant loss of activity; inhibitory activity (in words) (listed as Ac-Phe-[Orn-Pro-cha-Trp-Nva]): noteworthy inhibitory activity
CC(=O)N[C@@H](Cc1ccccc1)C(=O)N[C@H]1CCCNC(=O)[C@H](Cc2ccc(C)cc2)NC(=O)[C@H](Cc2c[nH]c3ccccc23)NC(=O)[C@@H](CC2CCCCC2)NC(=O)[C@@H]2CCCN2C1=O [Compound 36, Ac-Phe-[Orn-Pro-cha-Trp-Pmf]] (Ac-F[Orn]P[dCha]W[Phe(4-Me)]; lactam 2-C) | 20 to 50 | inhibitory activity (in words): without significant loss of activity; inhibitory activity (in words) (listed as Ac-Phe-[Orn-Pro-cha-Trp-Pmf]): noteworthy inhibitory activity
CC(C)CC[C@H]1NC(=O)[C@@H]2CCCN2C(=O)[C@@H](NC(=O)[C@@H](N)Cc2ccccc2)CCCNC(=O)[C@H](Cc2ccccc2)NC(=O)[C@H](Cc2cccc(Cl)c2)NC1=O [Compound 377, H-Phe-[Orn-Pro-hle-Mcf-Phe]] (H-F[Orn]P[d(hLeu)][Phe(3-Cl)]F; lactam 2-C) | 20 to 50 | 
CCCC[C@@H]1NC(=O)[C@H](Cc2c[nH]c3ccccc23)NC(=O)[C@@H](CC2CCCCC2)NC(=O)[C@@H]2C[C@H](O)CN2C(=O)[C@@H](NC(=O)[C@H](Cc2ccccc2)NC(C)=O)CCCNC1=O [Compound 175, Ac-Phe-[Orn-Chy-cha-Trp-Nle]] (Ac-F[Orn][cisHyp][dCha]W[Nle]; lactam 2-C) | 50 to 200 | 
CC(=O)N[C@@H](Cc1ccccc1)C(=O)N[C@@H](CCCN)C(=O)N1CC[C@H]1C(=O)N[C@H](CC1CCCCC1)C(=O)N[C@@H](Cc1csc2ccccc12)C(=O)NCCc1ccccc1 [Compound 73, Ac-Phe-Orn-Aze-cha-Bta-NH—CH2—CH2-Ph] (Ac-F[Orn][Aze][dCha][Bta]-NHPhenethyl) | 200 to 2000 | 
CC(=O)N[C@@H](Cc1ccccc1)C(=O)N[C@@H](CCCN)C(=O)N1CCC[C@H]1C(=O)N[C@H](CC1CCCCC1)C(=O)N[C@@H](Cc1c[nH]c2ccccc12)C(=O)NCCc1ccccc1 [Compound 72, Ac-Phe-Orn-Pro-cha-Trp-NH—CH2—CH2-Ph] (Ac-F[Orn]P[dCha]W-NHPhenethyl) | 200 to 2000 | 
CCCC[C@@H]1NC(=O)[C@H](Cc2c[nH]c3ccccc23)NC(=O)[C@@H](CSC(C)(C)C)NC(=O)[C@@H]2C[C@@H](O)CN2C(=O)[C@@H](NC(=O)[C@@H](N)Cc2ccccc2)CCCNC1=O [Compound 359, H-Phe-[Orn-Hyp-ctb-Trp-Nle]] (H-F[Orn][Hyp][dC](tBu)W[Nle]; lactam 2-C) | 20 to 50 | 
CC(=O)N[C@H](C(=O)N[C@@H](CCCN)C(=O)N1CCC[C@H]1C(=O)N[C@H](CC1CCCCC1)C(=O)N[C@@H](Cc1c[nH]c2ccccc12)C(=O)N[C@@H](Cc1ccccc1)C(N)=O)C(c1ccccc1)c1ccccc1 [Compound 78, Ac-Ebw-Orn-Pro-cha-Trp-Phe-NH2] (Ac-[Dip][Orn]P[dCha]WF-NH2) | 50 to 200 | 

Further lines, with some results ahead:

IC50 (read-out: activity (group)) [nM] | SMILES | other results
50 to 200 | CC(=O)N[C@@H](Cc1ccccc1)C(=O)N[C@@H](CCCCN)C(=O)N1CCC[C@H]1C(=O)N[C@H](CC1CCCCC1)C(=O)N[C@@H](Cc1c[nH]c2ccccc12)C(=O)N[C@@H](Cc1ccccc1)C(N)=O [Compound 87, Ac-Phe-Lys-Pro-cha-Trp-Phe-NH2] (Ac-FKP[dCha]WF-NH2) | 
50 to 200 | CC(=O)N[C@@H](Cc1ccccc1)C(=O)N[C@@H](CCCN)C(=O)N1CCC[C@H]1C(=O)N[C@H](CCC(C)C)C(=O)N[C@@H](Cc1ccc(F)cc1)C(=O)N[C@@H](Cc1ccc2ccccc2c1)C(N)=O [Compound 297, Ac-Phe-Orn-Pro-hle-Pff-2Ni—NH2] (Ac-F[Orn]P[d(hLeu)][Phe(4-F)][2Nal]-NH2) | 
200 to 2000 | CC(=O)N[C@@H](Cc1ccccc1)C(=O)N[C@H]1CCCNC(=O)[C@H](C[S+]([O-])Cc2cccnc2)NC(=O)[C@H](Cc2c[nH]c3ccccc23)NC(=O)[C@@H](CC2CCCCC2)NC(=O)[C@@H]2CCCN2C1=O (some centres unmarked) [compound 16] (Ac-F[Orn]P[dCha]W[X6]; lactam 2-C) | 
50 to 200 | CC(=O)N[C@@H](Cc1ccccc1)C(=O)N[C@@H](CCCN)C(=O)N1CCC[C@H]1C(=O)N[C@H](CCC1CCCCC1)C(=O)N[C@@H](Cc1c[nH]c2ccccc12)C(=O)N[C@@H](Cc1ccccc1)C(=O)O [Compound 132, Ac-Phe-Orn-Pro-hch-Trp-Phe-OH] (Ac-F[Orn]P[d(hCha)]WF-OH) | 
20 to 50 | CC(=O)N[C@@H](CCCNC(=N)N)C(=O)N[C@@H](Cc1ccccc1)C(=O)N[C@@H](CCCN)C(=O)N1CC[C@H]1C(=O)N[C@H](CC1CCCCC1)C(=O)N[C@@H](Cc1csc2ccccc12)C(=O)N[C@@H](Cc1ccccc1)C(N)=O [Compound 137, Ac-Arg-Phe-Orn-Aze-cha-Bta-Phe-NH2] (Ac-RF[Orn][Aze][dCha][Bta]F-NH2) | 
200 to 2000 | CC(=O)N[C@@H](Cc1ccccc1)C(=O)N[C@H]1CCCNC(=O)[C@H](CSCc2cccnc2)NC(=O)[C@H](Cc2c[nH]c3ccccc23)NC(=O)[C@@H](CC2CCCCC2)NC(=O)[C@@H]2CCCN2C1=O [compound 17] (Ac-F[Orn]P[dCha]WC(X22); lactam 2-C) | 
50 to 200 | CCCC[C@@H]1NC(=O)[C@H](Cc2c[nH]c3ccccc23)NC(=O)[C@@H](CC2CCCCC2)NC(=O)[C@@H]2CCCN2C(=O)[C@@H](NC(=O)[C@H](Cc2ccccc2)NC(=O)CON=CC(O)C(O)C(O)C(O)CO)CCCNC1=O (single isomer, unassigned) [Compound 334, Fck-Phe-[Orn-Pro-cha-Trp-Nle]] | 
20 to 50 | CC(=O)N[C@@H](C)C(=O)N[C@@H](Cc1ccccc1)C(=O)N[C@@H](CCCN)C(=O)N1CC[C@H]1C(=O)N[C@H](CC1CCCCC1)C(=O)N[C@@H](Cc1csc2ccccc12)C(=O)N[C@@H](Cc1ccccc1)C(N)=O [Compound 151, Ac-Ala-Phe-Orn-Aze-cha-Bta-Phe-NH2] (Ac-AF[Orn][Aze][dCha][Bta]F-NH2) | 
50 to 200 | CC(=O)N[C@@H](Cc1ccccc1)C(=O)N[C@@H](CCCN)C(=O)N1C[C@H](O)C[C@H]1C(=O)N[C@H](CCC(C)C)C(=O)N[C@@H](Cc1ccc(F)cc1)C(=O)N[C@@H](Cc1ccccc1)C(N)=O [Compound 245, Ac-Phe-Orn-Hyp-hle-Pff-Phe-NH2] (Ac-F[Orn][Hyp][d(hLeu)][Phe(4-F)]F-NH2) | 
10 to 20 | CC(=O)N[C@@H](Cc1ccccc1)C(=O)N[C@@H](CCNC1=NCCN1)C(=O)N1CC[C@H]1C(=O)N[C@H](CC1CCCCC1)C(=O)N[C@@H](Cc1csc2ccccc12)C(=O)N[C@@H](Cc1ccccc1)C(N)=O [Compound 219, Ac-Phe-Fcn-Aze-cha-Bta-Phe-NH2] (Ac-F[X3][Aze][dCha][Bta]F-NH2) | 
20 to 50 | CC(=O)N1C[C@H](O)C[C@H]1C(=O)N[C@@H](Cc1ccccc1)C(=O)N[C@@H](CCCN)C(=O)N1CC[C@H]1C(=O)N[C@H](CC1CCCCC1)C(=O)N[C@@H](Cc1csc2ccccc12)C(=O)N[C@@H](Cc1ccccc1)C(N)=O [Compound 159, Ac-Hyp-Phe-Orn-Aze-cha-Bta-Phe-NH2] (Ac-[Hyp]F[Orn][Aze][dCha][Bta]F-NH2) | 
20 to 50 | CC(=O)N[C@@H](Cc1ccccc1)C(=O)N[C@@H](CCCNC1=NCCN1)C(=O)N1CC[C@H]1C(=O)N[C@H](CC1CCCCC1)C(=O)N[C@@H](Cc1csc2ccccc12)C(=O)N[C@@H](Cc1ccccc1)C(N)=O [Compound 224, Ac-Phe-Ffa-Aze-cha-Bta-Phe-NH2] (Ac-F[Orn(2-imidazolinyl)][Aze][dCha][Bta]F-NH2) | 
